{"source": "ChEMBL document CHEMBL5338795", "about": "“Novel Triazoles with Potent and Broad-Spectrum Antifungal Activity In Vitro and In Vivo” (J Med Chem, 2023)", "assay_type_in_all_cases": "functional", "key": {"Candida albicans [1]": {"system": "Candida albicans", "experiment": "Antifungal activity against Candida albicans SC5314 assessed as reduction in fungal growth incubated for 24 hrs by CLSI based microdilution analysis"}, "[2]": {"system": "Meyerozyma guilliermondii", "experiment": "Antifungal activity against Meyerozyma guilliermondii ATCC 6260 assessed as reduction in fungal growth incubated for 24 hrs by CLSI based microdilution analysis"}, "Candida albicans [3]": {"system": "Candida albicans", "experiment": "Antifungal activity against fluconazole-resistant Candida albicans 901 assessed as inhibition of fungal growth measured for 24 hrs by CLSI based microdilution analysis"}, "Candida albicans [4]": {"system": "Candida albicans", "experiment": "Antifungal activity against fluconazole-resistant Candida albicans 13 assessed as inhibition of fungal growth measured for 24 hrs by CLSI based microdilution analysis"}, "Aspergillus fumigatus": {"system": "Aspergillus fumigatus", "experiment": "Antifungal activity against Aspergillus fumigatus CGMCC3 7795 assessed as reduction in fungal growth incubated for 48 hrs by CLSI based microdilution analysis"}, "Nakaseomyces glabratus": {"system": "Nakaseomyces glabratus", "experiment": "Antifungal activity against Candida glabrata ATCC 15126 assessed as reduction in fungal growth incubated for 24 hrs by CLSI based microdilution analysis"}, "Candida albicans [5]": {"system": "Candida albicans", "experiment": "Antifungal activity against fluconazole-resistant Candida albicans 112869 assessed as inhibition of fungal growth measured for 24 hrs by CLSI based microdilution analysis"}, "Candida albicans [6]": {"system": "Candida albicans", "experiment": "Antifungal activity against fluconazole-resistant Candida albicans 102 assessed as inhibition of fungal growth measured for 24 hrs by CLSI based microdilution analysis"}, "Candida parapsilosis": {"system": "Candida parapsilosis", "experiment": "Antifungal activity against Candida parapsilosis ATCC 22019 assessed as reduction in fungal growth incubated for 24 hrs by CLSI based microdilution analysis", "conditions": "Lodderomyces parapsilosis"}, "Candida tropicalis": {"system": "Candida tropicalis", "experiment": "Antifungal activity against Candida tropicalis ATCC 750 assessed as reduction in fungal growth incubated for 24 hrs by CLSI based microdilution analysis"}, "Cryptococcus neoformans": {"system": "Cryptococcus neoformans", "experiment": "Antifungal activity against Cryptococcus neoformans CGMCC3 1563 assessed as reduction in fungal growth incubated for 72 hrs by CLSI based microdilution analysis"}, "Candida albicans [7]": {"system": "Candida albicans", "experiment": "Antifungal activity against fluconazole-resistant Candida albicans 15 assessed as inhibition of fungal growth measured for 24 hrs by CLSI based microdilution analysis"}, "Candida albicans [8]": {"system": "Candida albicans", "experiment": "Antifungal activity against fluconazole-resistant Candida albicans 24D assessed as inhibition of fungal growth measured for 24 hrs by CLSI based microdilution analysis"}}}
{"compound": "O=[N+]([O-])c1ccc2c(ccn2CCN2CCN(CC(O)(Cn3cncn3)c3ccc(F)cc3F)CC2)c1", "note": "(centres undefined)", "values": [{"measurement": "MIC80", "setting": "Candida albicans [1]", "value": 0.031, "unit": "µg/mL"}, {"measurement": "MIC80", "setting": "[2]", "value": 0.062, "unit": "µg/mL"}, {"measurement": "MIC80", "setting": "Candida albicans [3]", "value": 1.25, "unit": "µg/mL"}, {"measurement": "MIC80", "setting": "Candida albicans [4]", "value": 0.062, "unit": "µg/mL"}, {"measurement": "MIC80", "setting": "Aspergillus fumigatus", "value": 1.25, "unit": "µg/mL"}, {"measurement": "MIC80", "setting": "Nakaseomyces glabratus", "value": 0.312, "unit": "µg/mL"}, {"measurement": "MIC80", "setting": "Candida albicans [5]", "value": 0.062, "unit": "µg/mL"}, {"measurement": "MIC80", "setting": "Candida albicans [6]", "value": 0.031, "unit": "µg/mL"}, {"measurement": "MIC80", "setting": "Candida parapsilosis", "value": 0.062, "unit": "µg/mL"}, {"measurement": "MIC80", "setting": "Candida tropicalis", "value": 0.312, "unit": "µg/mL"}, {"measurement": "MIC80", "setting": "Cryptococcus neoformans", "value": 0.031, "unit": "µg/mL"}, {"measurement": "MIC80", "setting": "Candida albicans [7]", "value": 1.25, "unit": "µg/mL"}, {"measurement": "MIC80", "setting": "Candida albicans [8]", "value": 0.031, "unit": "µg/mL"}]}
{"compound": "OC(CN1CCN(CCn2ccc3cc(Br)cnc32)CC1)(Cn1cncn1)c1ccc(F)cc1F", "note": "(centres undefined)", "values": [{"measurement": "MIC80", "setting": "Candida albicans [1]", "value": 0.062, "unit": "µg/mL"}]}
{"compound": "COc1ccc2c(cnn2CCN2CCN(CC(O)(Cn3cncn3)c3ccc(F)cc3F)CC2)c1", "note": "(centres undefined)", "values": [{"measurement": "MIC80", "setting": "Candida albicans [1]", "value": 0.062, "unit": "µg/mL"}]}
{"compound": "COc1ccc2c(ccn2CCCN2CCN(CC(O)(Cn3cncn3)c3ccc(F)cc3F)CC2)c1", "note": "(centres undefined)", "values": [{"measurement": "MIC80", "setting": "Candida albicans [1]", "value": 0.062, "unit": "µg/mL"}, {"measurement": "MIC80", "setting": "[2]", "value": 0.125, "unit": "µg/mL"}, {"measurement": "MIC80", "setting": "Candida albicans [3]", "value": 5, "unit": "µg/mL"}, {"measurement": "MIC80", "setting": "Candida albicans [4]", "value": 0.062, "unit": "µg/mL"}, {"measurement": "MIC80", "setting": "Aspergillus fumigatus", "value": 5, "unit": "µg/mL"}, {"measurement": "MIC80", "setting": "Nakaseomyces glabratus", "value": 0.312, "unit": "µg/mL"}, {"measurement": "MIC80", "setting": "Candida albicans [5]", "value": 0.25, "unit": "µg/mL"}, {"measurement": "MIC80", "setting": "Candida albicans [6]", "value": 0.062, "unit": "µg/mL"}, {"measurement": "MIC80", "setting": "Candida parapsilosis", "value": 0.062, "unit": "µg/mL"}, {"measurement": "MIC80", "setting": "Candida tropicalis", "value": 0.625, "unit": "µg/mL"}, {"measurement": "MIC80", "setting": "Cryptococcus neoformans", "value": 0.125, "unit": "µg/mL"}, {"measurement": "MIC80", "setting": "Candida albicans [7]", "value": 0.625, "unit": "µg/mL"}, {"measurement": "MIC80", "setting": "Candida albicans [8]", "value": 0.125, "unit": "µg/mL"}]}
{"compound": "OC(CN1CCN(CCOc2ccc3c(c2)OCO3)CC1)(Cn1cncn1)c1ccc(F)cc1F", "note": "(centres undefined)", "values": [{"measurement": "MIC80", "setting": "Candida albicans [1]", "value": 0.125, "unit": "µg/mL"}]}
{"compound": "COc1ccc2c(ccn2CCN2CCN(CC(O)(Cn3cncn3)c3ccc(F)cc3F)CC2)c1", "note": "(centres undefined)", "values": [{"measurement": "MIC80", "setting": "Candida albicans [1]", "value": 0.031, "unit": "µg/mL"}]}
{"compound": "OC(CN1CCN(CCCn2ccc3ccc(Cl)cc32)CC1)(Cn1cncn1)c1ccc(F)cc1F", "note": "(centres undefined)", "values": [{"measurement": "MIC80", "setting": "Candida albicans [1]", "value": 0.062, "unit": "µg/mL"}, {"measurement": "MIC80", "setting": "[2]", "value": 0.125, "unit": "µg/mL"}, {"measurement": "MIC80", "setting": "Candida albicans [3]", "value": 5, "unit": "µg/mL"}, {"measurement": "MIC80", "setting": "Candida albicans [4]", "value": 0.062, "unit": "µg/mL"}, {"measurement": "MIC80", "setting": "Aspergillus fumigatus", "value": 5, "unit": "µg/mL"}, {"measurement": "MIC80", "setting": "Nakaseomyces glabratus", "value": 0.312, "unit": "µg/mL"}, {"measurement": "MIC80", "setting": "Candida albicans [5]", "value": 0.25, "unit": "µg/mL"}, {"measurement": "MIC80", "setting": "Candida albicans [6]", "value": 0.062, "unit": "µg/mL"}, {"measurement": "MIC80", "setting": "Candida parapsilosis", "value": 0.125, "unit": "µg/mL"}, {"measurement": "MIC80", "setting": "Candida tropicalis", "value": 0.625, "unit": "µg/mL"}, {"measurement": "MIC80", "setting": "Cryptococcus neoformans", "value": 0.031, "unit": "µg/mL"}, {"measurement": "MIC80", "setting": "Candida albicans [7]", "value": 2.5, "unit": "µg/mL"}, {"measurement": "MIC80", "setting": "Candida albicans [8]", "value": 0.062, "unit": "µg/mL"}]}
{"compound": "O=C(c1ccc2c(c1)OCCO2)N1CCN(CC(O)(Cn2cncn2)c2ccc(F)cc2F)CC1", "note": "(centres undefined)", "values": [{"measurement": "MIC80", "setting": "Candida albicans [1]", "value": 0.25, "unit": "µg/mL"}]}
{"compound": "COc1ccc2c(ccn2CCCCCCN2CCN(CC(O)(Cn3cncn3)c3ccc(F)cc3F)CC2)c1", "note": "(centres undefined)", "values": [{"measurement": "MIC80", "setting": "Candida albicans [1]", "value": 0.25, "unit": "µg/mL"}]}
{"compound": "OC(CN1CCN(CCn2c3ccccc3c3ccccc32)CC1)(Cn1cncn1)c1ccc(F)cc1F", "note": "(centres undefined)", "values": [{"measurement": "MIC80", "setting": "Candida albicans [1]", "value": 0.125, "unit": "µg/mL"}]}
{"compound": "O=C(c1cc2cc(Br)ccc2oc1=O)N1CCN(CC(O)(Cn2cncn2)c2ccc(F)cc2F)CC1", "note": "(centres undefined)", "values": [{"measurement": "MIC80", "setting": "Candida albicans [1]", "value": 0.125, "unit": "µg/mL"}]}
{"compound": "OC(CN1CCN(CCc2ccccc2)CC1)(Cn1cncn1)c1ccc(F)cc1F", "note": "(centres undefined)", "values": [{"measurement": "MIC80", "setting": "Candida albicans [1]", "value": 0.125, "unit": "µg/mL"}]}
{"compound": "O=C(c1ccc2c(c1)OCO2)N1CCN(CC(O)(Cn2cncn2)c2ccc(F)cc2F)CC1", "note": "(centres undefined)", "values": [{"measurement": "MIC80", "setting": "Candida albicans [1]", "value": 0.25, "unit": "µg/mL"}]}
{"compound": "OC(CN1CCN(CCc2cccc3ccccc23)CC1)(Cn1cncn1)c1ccc(F)cc1F", "note": "(centres undefined)", "values": [{"measurement": "MIC80", "setting": "Candida albicans [1]", "value": 0.25, "unit": "µg/mL"}]}
{"compound": "O=C(c1cccc2ccccc12)N1CCN(CC(O)(Cn2cncn2)c2ccc(F)cc2F)CC1", "note": "(centres undefined)", "values": [{"measurement": "MIC80", "setting": "Candida albicans [1]", "value": 0.25, "unit": "µg/mL"}]}
{"compound": "O=C(c1cc2cc(F)ccc2oc1=O)N1CCN(CC(O)(Cn2cncn2)c2ccc(F)cc2F)CC1", "note": "(centres undefined)", "values": [{"measurement": "MIC80", "setting": "Candida albicans [1]", "value": 0.25, "unit": "µg/mL"}]}
{"compound": "O=S(=O)(c1ccc(Cl)cc1)N1CCN(CC(O)(Cn2cncn2)c2ccc(F)cc2F)CC1", "note": "(centres undefined)", "values": [{"measurement": "MIC80", "setting": "Candida albicans [1]", "value": 0.125, "unit": "µg/mL"}]}
{"compound": "O=C(c1ccc2ncccc2c1)N1CCN(CC(O)(Cn2cncn2)c2ccc(F)cc2F)CC1", "note": "(centres undefined)", "values": [{"measurement": "MIC80", "setting": "Candida albicans [1]", "value": 0.125, "unit": "µg/mL"}]}
{"compound": "O=S(=O)(c1ccc(F)cc1)N1CCN(CC(O)(Cn2cncn2)c2ccc(F)cc2F)CC1", "note": "(centres undefined)", "values": [{"measurement": "MIC80", "setting": "Candida albicans [1]", "value": 0.125, "unit": "µg/mL"}]}
{"compound": "OC(CN1CCN(CCn2ccc3cccnc32)CC1)(Cn1cncn1)c1ccc(F)cc1F", "note": "(centres undefined)", "values": [{"measurement": "MIC80", "setting": "Candida albicans [1]", "value": 0.062, "unit": "µg/mL"}]}
{"compound": "COc1ccc2c(ccn2CCCCCCCCCN2CCN(CC(O)(Cn3cncn3)c3ccc(F)cc3F)CC2)c1", "note": "(centres undefined)", "values": [{"measurement": "MIC80", "setting": "Candida albicans [1]", "value": 0.5, "unit": "µg/mL"}]}
{"compound": "COc1ccc(S(=O)(=O)N2CCN(CC(O)(Cn3cncn3)c3ccc(F)cc3F)CC2)cc1", "note": "(centres undefined)", "values": [{"measurement": "MIC80", "setting": "Candida albicans [1]", "value": 0.25, "unit": "µg/mL"}]}
{"compound": "OC(CN1CCN(CCn2ccc3cc(Cl)cnc32)CC1)(Cn1cncn1)c1ccc(F)cc1F", "note": "(centres undefined)", "values": [{"measurement": "MIC80", "setting": "Candida albicans [1]", "value": 0.062, "unit": "µg/mL"}]}
{"compound": "COc1ccc2c(ccn2CCCCCCCCCCN2CCN(CC(O)(Cn3cncn3)c3ccc(F)cc3F)CC2)c1", "note": "(centres undefined)", "values": [{"measurement": "MIC80", "setting": "Candida albicans [1]", "value": 0.5, "unit": "µg/mL"}]}
{"compound": "COc1ccc2c(ccn2CCCCCN2CCN(CC(O)(Cn3cncn3)c3ccc(F)cc3F)CC2)c1", "note": "(centres undefined)", "values": [{"measurement": "MIC80", "setting": "Candida albicans [1]", "value": 0.125, "unit": "µg/mL"}]}
{"compound": "OC(CN1CCN(CCCCCCn2ccc3cc(Br)ccc32)CC1)(Cn1cncn1)c1ccc(F)cc1F", "note": "(centres undefined)", "values": [{"measurement": "MIC80", "setting": "Candida albicans [1]", "value": 0.125, "unit": "µg/mL"}]}
{"compound": "OC(CN1CCN(CCCCCn2ccc3ccc(F)cc32)CC1)(Cn1cncn1)c1ccc(F)cc1F", "note": "(centres undefined)", "values": [{"measurement": "MIC80", "setting": "Candida albicans [1]", "value": 0.125, "unit": "µg/mL"}]}
{"compound": "OC(CN1CCN(CCCCCCCCCCn2ccc3cc(Cl)ccc32)CC1)(Cn1cncn1)c1ccc(F)cc1F", "note": "(centres undefined)", "values": [{"measurement": "MIC80", "setting": "Candida albicans [1]", "value": 0.5, "unit": "µg/mL"}]}
